Experimental data taken from PubChem BioAssay AID330 (DTP/NCI, 2004).
Where “and” joins values, the source holds several entries; their conditions need not be identical. Equal values may be shown once. Toxic doses and inconclusive results are not listed.

Tested on: P388 leukemia ip, CD2F1 mice, survival T/C
Assay: NCI In Vivo Anticancer Drug Screen. Data for tumor model P388 Leukemia (intraperitoneal) in CD2F1 (CDF1) mice
Settings: endpoint: median survival time, higher = longer survival
How it was run: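 Mice carrying the transplanted tumor received test compound or vehicle. Survival was recorded in each group, and the value is the treated-group measurement divided by that of the vehicle-treated control group.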

[1] = dose: 50.0 mg/kg/injection, schedule: Q01DX005 (ip), vehicle: saline with Tween-80
[2] = dose: 100.0 mg/kg/injection, schedule: Q01DX005 (ip), vehicle: saline with Tween-80
[3] = dose: 200.0 mg/kg/injection, schedule: Q01DX005 (ip), vehicle: saline with Tween-80
[4] = dose: 60.0 mg/kg/injection, schedule: Q01DX005 (ip), vehicle: Klucel (hydroxypropylcellulose) (HPC)
[5] = dose: 120.0 mg/kg/injection, schedule: Q01DX005 (ip), vehicle: Klucel (hydroxypropylcellulose) (HPC)
[6] = dose: 50.0 mg/kg/injection, schedule: Q01DX009 (ip), vehicle: Klucel (hydroxypropylcellulose) (HPC)
[7] = dose: 100.0 mg/kg/injection, schedule: Q01DX009 (ip), vehicle: Klucel (hydroxypropylcellulose) (HPC)
[8] = dose: 200.0 mg/kg/injection, schedule: Q01DX009 (ip), vehicle: Klucel (hydroxypropylcellulose) (HPC)
[9] = dose: 50.0 mg/kg/injection, schedule: Q01DX005 (ip), vehicle: Klucel (hydroxypropylcellulose) (HPC)
[10] = dose: 100.0 mg/kg/injection, schedule: Q04DX003 (ip), vehicle: saline with Tween-80
[11] = dose: 200.0 mg/kg/injection, schedule: Q04DX003 (ip), vehicle: saline with Tween-80
[12] = dose: 50.0 mg/kg/injection, schedule: Q04DX003 (ip), vehicle: saline with Tween-80
[13] = dose: 100.0 mg/kg/injection, schedule: Q01DX001 (ip), vehicle: saline with Tween-80
[14] = dose: 200.0 mg/kg/injection, schedule: Q01DX001 (ip), vehicle: saline with Tween-80
[15] = dose: 400.0 mg/kg/injection, schedule: Q01DX001 (ip), vehicle: saline with Tween-80

For `Cc1c2ccncc2c(C)c2c1[nH]c1ccc(F)cc12`, the T/C (dose: 16.25 mg/kg/injection, schedule: Q04DX002 (ip), vehicle: Klucel (hydroxypropylcellulose) (HPC)) was 106 % of control and the T/C (dose: 32.5 mg/kg/injection, schedule: Q04DX002 (ip), vehicle: Klucel (hydroxypropylcellulose) (HPC)) was 106 % of control.
In the case of `Nc1cccnc1`, the T/C (dose: 5.0 mg/kg/injection, schedule: Q04DX003 (ip), vehicle: saline) is reported as 100 % of control, the T/C (dose: 10.0 mg/kg/injection, schedule: Q04DX003 (ip), vehicle: saline) is reported as 100 % of control and the T/C (dose: 20.0 mg/kg/injection, schedule: Q04DX003 (ip), vehicle: saline) is reported as 100 % of control.
`CC1(O)c2ccccc2C(C)(O)c2c1ccc1ccccc21` (centres undefined) was tested, and the T/C [1] was 95 % of control and the T/C [2] was 87 % of control.
With `O=S(=O)(O)O.[NH-]CCC[NH-].[Pt+2]` the T/C (dose: 6.25 mg/kg/injection, schedule: Q04DX002 (ip), vehicle: saline) was 168 % of control and the T/C (dose: 12.5 mg/kg/injection, schedule: Q04DX002 (ip), vehicle: saline) was 158 % of control.
For `CCCCN(CCCC)CC(O)c1cc2ccccc2c2cc(Br)ccc12` (centres undefined), the T/C [1] was 100 % of control, the T/C [2] was 102 % of control and the T/C [3] was 100 % of control.
`CC1(C(=O)O)CCCC2(C)C(CC(=O)O)C(=O)CCC12` (centres undefined) was tested, and the T/C (dose: 5.0 mg/kg/injection, schedule: Q01DX009 (ip), vehicle: saline with Tween-80) was 101 % of control, the T/C (dose: 10.0 mg/kg/injection, schedule: Q01DX009 (ip), vehicle: saline with Tween-80) was 108 % of control and the T/C (dose: 20.0 mg/kg/injection, schedule: Q01DX009 (ip), vehicle: saline with Tween-80) was 99 % of control.
`C/C(=N/N=C(N)N)c1cnn(C(=N)N)c1C` was tested, and the T/C [4] was 99 % of control and the T/C [5] was 114 % of control.
In the case of `CCOC(=O)c1cnc2cc3c(cc2c1Nc1ccccc1)OCO3`, the T/C [4] is reported as 94 % of control, the T/C [5] is reported as 99 % of control and the T/C (dose: 240.0 mg/kg/injection, schedule: Q01DX005 (ip), vehicle: Klucel (hydroxypropylcellulose) (HPC)) is reported as 95 % of control.
In the case of `C[C@H](N)C(=O)/C=C/c1ccccc1`, the T/C (dose: 10.0 mg/kg/injection, schedule: Q01DX005 (ip), vehicle: saline) is reported as 101 % of control, the T/C (dose: 20.0 mg/kg/injection, schedule: Q01DX005 (ip), vehicle: saline) is reported as 100 % of control and the T/C (dose: 40.0 mg/kg/injection, schedule: Q01DX005 (ip), vehicle: saline) is reported as 98 % of control.
For `CC(=O)c1nn(-c2ccccc2)c(=Nc2ccccc2)cc1C`, the T/C [1] was 100 % of control, the T/C [2] was 101 % of control and the T/C [3] was 98 % of control.
With `O=C1C(Cl)=C(NCCCC2CCCN3CCCCC23)C(=O)c2ccccc21` (centres undefined) the T/C (dose: 25.0 mg/kg/injection, schedule: Q04DX002 (ip), vehicle: Klucel (hydroxypropylcellulose) (HPC)) was 100 % of control, the T/C (dose: 50.0 mg/kg/injection, schedule: Q04DX002 (ip), vehicle: Klucel (hydroxypropylcellulose) (HPC)) was 101 % of control and the T/C (dose: 100.0 mg/kg/injection, schedule: Q04DX002 (ip), vehicle: Klucel (hydroxypropylcellulose) (HPC)) was 114 % of control and 94 % of control.
For `Nc1n[nH]c(N)c1N=Nc1ccccc1`, the T/C [6] was 98 % of control, the T/C [7] was 99 % of control and the T/C [8] was 93 % of control. The T/C (dose: 400.0 mg/kg/injection, schedule: Q01DX009 (ip), vehicle: Klucel (hydroxypropylcellulose) (HPC)) was 94 % of control.
In the case of `CC(=O)Oc1cccn(C)c1=O`, the T/C (dose: 37.5 mg/kg/injection, schedule: Q01DX009 (ip), vehicle: saline) is reported as 108 % of control, the T/C (dose: 75.0 mg/kg/injection, schedule: Q01DX009 (ip), vehicle: saline) is reported as 103 % of control and the T/C (dose: 150.0 mg/kg/injection, schedule: Q01DX009 (ip), vehicle: saline) is reported as 113 % of control. For the same compound, the T/C (dose: 300.0 mg/kg/injection, schedule: Q01DX009 (ip), vehicle: saline) was 119 % of control and the T/C (dose: 500.0 mg/kg/injection, schedule: Q01DX009 (ip), vehicle: saline) was 117 % of control.
`OCc1cccc2c1C(O)c1ccccc1-2` (centres undefined) was tested, and the T/C [9] was 100 % of control, the T/C (dose: 100.0 mg/kg/injection, schedule: Q01DX005 (ip), vehicle: Klucel (hydroxypropylcellulose) (HPC)) was 104 % of control and the T/C (dose: 200.0 mg/kg/injection, schedule: Q01DX005 (ip), vehicle: Klucel (hydroxypropylcellulose) (HPC)) was 100 % of control.
`Cc1c2ccncc2c(O)c2c3ccccc3n(C)c12` was tested, and the T/C (dose: 12.5 mg/kg/injection, schedule: Q01DX005 (ip), vehicle: Klucel (hydroxypropylcellulose) (HPC)) was 108 % of control, the T/C (dose: 25.0 mg/kg/injection, schedule: Q01DX005 (ip), vehicle: Klucel (hydroxypropylcellulose) (HPC)) was 110 % of control and the T/C [9] was 108 % of control.
In the case of `Cc1ccccc1NC(CCl)=NC(C)(C)C`, the T/C [10] is reported as 98 % of control, the T/C [11] is reported as 107 % of control and the T/C (dose: 400.0 mg/kg/injection, schedule: Q04DX003 (ip), vehicle: saline with Tween-80) is reported as 104 % of control.
`N#CC1C(=O)NC(=O)C(C#N)C1CCc1ccccc1` (centres undefined) was tested, and the T/C (dose: 50.0 mg/kg/injection, schedule: Q01DX009 (ip), vehicle: distilled water + alcohol) was 103 % of control, the T/C (dose: 100.0 mg/kg/injection, schedule: Q01DX009 (ip), vehicle: distilled water + alcohol) was 100 % of control and the T/C (dose: 200.0 mg/kg/injection, schedule: Q01DX009 (ip), vehicle: distilled water + alcohol) was 100 % of control.
`CC(C)=C/C(C)=N/Nc1ccc([N+](=O)[O-])cc1[N+](=O)[O-]` was tested, and the T/C (dose: 25.0 mg/kg/injection, schedule: Q04DX003 (ip), vehicle: saline with Tween-80) was 100 % of control, the T/C [12] was 100 % of control and the T/C [10] was 100 % of control.
In the case of `CN(C)C1(c2ccc3ccccc3c2)CS(=O)(=O)C1`, the T/C (dose: 100.0 mg/kg/injection, schedule: Q04DX002 (ip), vehicle: saline with Tween-80) is reported as 100 % of control, the T/C (dose: 200.0 mg/kg/injection, schedule: Q04DX002 (ip), vehicle: saline with Tween-80) is reported as 98 % of control and the T/C (dose: 400.0 mg/kg/injection, schedule: Q04DX002 (ip), vehicle: saline with Tween-80) is reported as 92 % of control.
With `c1ccc2cc3c(N=Nc4cc5ccccc5[nH]4)cccc3cc2c1` the T/C [13] was 97 % of control, the T/C [14] was 97 % of control and the T/C [15] was 94 % of control.
With `O=c1cc(-c2ccccc2)nc(Sc2ccc([N+](=O)[O-])cc2[N+](=O)[O-])[nH]1` the T/C [6] was 98 % of control, the T/C [7] was 98 % of control and the T/C [8] was 93 % of control.
For `COc1cc(C(C)=O)cc([N+](=O)[O-])c1O`, the T/C [12] was 100 % of control, the T/C [10] was 100 % of control and the T/C [11] was 100 % of control.
In the case of `COC(=O)c1nn(-c2ccccc2)c(C(=O)OC)c1C(=O)OC`, the T/C [13] is reported as 111 % of control, the T/C [14] is reported as 112 % of control and the T/C [15] is reported as 98 % of control.
With `Clc1nc(-c2ccccc2)nc(-c2ccccc2)n1` the T/C (dose: 100.0 mg/kg/injection, schedule: Q04DX002 (ip), vehicle: saline) was 104 % of control, the T/C (dose: 200.0 mg/kg/injection, schedule: Q04DX002 (ip), vehicle: saline) was 100 % of control and the T/C (dose: 400.0 mg/kg/injection, schedule: Q04DX002 (ip), vehicle: saline) was 109 % of control.
For `CC(=O)OC1C=CC2Oc3ccc(C)cc3C1(C)O2` (centres undefined), the T/C (dose: 60.0 mg/kg/injection, schedule: Q01DX005 (ip), vehicle: saline with Tween-80) was 93 % of control, the T/C (dose: 120.0 mg/kg/injection, schedule: Q01DX005 (ip), vehicle: saline with Tween-80) was 106 % of control and the T/C (dose: 240.0 mg/kg/injection, schedule: Q01DX005 (ip), vehicle: saline with Tween-80) was 101 % of control.
`CC1(C)N=C(N)N=C(N)N1c1ccc(Cl)c(C(F)(F)F)c1` was tested, and the T/C (dose: 3.12 mg/kg/injection, schedule: Q01DX009 (ip), vehicle: saline) was 108 % of control, the T/C (dose: 12.5 mg/kg/injection, schedule: Q01DX009 (ip), vehicle: saline) was 124 % of control and the T/C (dose: 12.5 mg/kg/injection, schedule: Q01DX009 (ip), vehicle: suspension in saline) was 155 % of control. For the same compound, the T/C (dose: 25.0 mg/kg/injection, schedule: Q01DX009 (ip), vehicle: suspension in saline) was 172 % of control.
With `COc1ccc(C(C)c2cc3c(cc2OCC(=O)O)OCO3)cc1` (centres undefined) the T/C [1] was 105 % of control, the T/C [2] was 88 % of control and the T/C [3] was 90 % of control.
For `O=C(OCc1ccccc1)C(=O)c1c(O)n(-c2ccccc2)c2ccccc12`, the T/C (dose: 100.0 mg/kg/injection, schedule: Q04DX002 (ip), vehicle: saline + alcohol) was 99 % of control, the T/C (dose: 200.0 mg/kg/injection, schedule: Q04DX002 (ip), vehicle: saline + alcohol) was 100 % of control and the T/C (dose: 400.0 mg/kg/injection, schedule: Q04DX002 (ip), vehicle: saline + alcohol) was 96 % of control.
